Reference: US20260250721A1, “Biological Anisole Production” (Wageningen Universiteit, priority 2023, published 2026)
Where a chain is given by its changes, count along the chain named. Names may count otherwise.

Assays:
P. putida KT2440 = experiment: Toxicity analysis: growth of P. putida KT2440 at different phenol and anisole concentrations
Description: (§1) P. putida and E. coli cultures were incubated at 30° C. and 37° C. respectively. For cloning purposes, both strains were propagated in Lysogeny Broth (LB) medium containing 10 g/L NaCl, 10 g/L tryptone, and 5 g/L yeast extract. For the preparation of solid media, 1.5% (w/v) agar was added. […] All growth experiments were performed using M9 minimal medium (per Liter; 3.88 g K2HPO4, 1.63 g NaH2PO4, 2.0 g (NH4)2SO4, pH 7.0. The M9 media was supplemented with a trace elements solution (10 mg/L ethylenediaminetetraacetic acid (EDTA), 0.1 g/L MgCl2 6 H2O, 2 mg/L ZnSO4·7H2O, 1 mg/L CaCl2)·2H2O, 5 mg/L FeSO4·7 H2O, 0.2 mg/L Na2MoO4·2H2O, 0.2 mg/L CuSO4·5H2O, 0.4 mg/L CoCl2·6H2O, 1 mg/L MnCl2·2H2O). In these experiments, strains were precultured in 10 mL LB with corresponding antibiotics. Then, the cultures were washed twice in M9 media without a carbon source. Finally, the cultures were diluted to an OD600 of 0.1 to start the experiment. In all plate reader experiments, a glucose concentration of 10 mM was used. […] Plate reader experiments were carried out in 200 μL of M9 medium using an ELx808 plate reader (BioTek). Growth (OD600) was measured over time using continuous shaking and measurements were taken every three minutes. Flask experiments were performed in 250 mL Erlenmeyer flasks filled with 25 mL of M9 minimal medium containing 50 mM of glucose. […] The cultures were incubated in a rotary shaker at 200 rpm at 30° C.
The production of aromatic compounds often comes with unwanted toxicity. One way of circumventing this is the utilization of microbial hosts with high tolerance towards aromatic compounds (Li et al., 2020. Biotechnol Adv 41: 107548).
The presence of phenolic hydroxyl groups has been associated with the inhibition of microbial enzymes and the damage of the bacterial membrane (Miklasinska-Majdanik et al., 2018. Int J Environ Res Public Health 15: 2321).

[1] = Abiotic escape of anisole from M9 minimal media overnight; assay type: physicochemical; details: 2 mM anisole in M9 minimal media, flasks
[2] = Distribution of anisole and phenol between water and organic solvent after 1 h; assay type: physicochemical; details: 1 mM in water, equal volume of dodecane, ethyl acetate, isopropyl myristate or tributyrin
Description: A main bottleneck when producing anisole is its volatility. To overcome this problem an organic solvent can be used in biphasic fermentation to quantify volatile or insoluble products in water, allowing their recovery. To enable in situ anisole extraction, we tested four organic solvents: dodecane, ethyl acetate, isopropyl myristate, and tributyrin. […] Next, 0.9 ml of the stock solution was mixed with an equal volume of one of the selected solvents in an Eppendorf tube.
Therefore, dodecane was chosen as the solvent for anisole extraction.

[3] = Anisole capture at different dodecane ratios, 24 h flasks; assay type: physicochemical; details: 30° C., 250 rpm
Description: An additional experiment was performed to determine the optimal ratio of the two phases. Ratios of 0%, 5%, 15%, 30%, 50%, and 100% dodecane were tested in a total volume of 25 ml. […] Next, dodecane was added to the flasks according to the predetermined ratios. Flasks were incubated for 24 h at 30° C. and 250 rpm to simulate P. putida KT2440 growth. After incubation, samples were collected separately from each phase and concentrations were measured using HPLC. […] After 24 hours, samples containing the organic phase from 5% and 15% dodecane flasks captured on average 19.42% and 39.57% of the initial concentration of anisole, respectively. […] Flasks containing 30% dodecane, extracted approximately 75% of the anisole which was further increased to nearly 95% flasks with a 50% ratio.

phenol [4] = experiment: Phenol consumption and anisole production by P. putida KT2440 expressing CVOMT1; assay type: cell-based, Pseudomonas putida; details: 50 mM glucose, 1 mM phenol
Description: as §1

phenol [5] = experiment: Phenol consumption and anisole production, CVOMT1 vs POMT1 in P. putida KT2440 with 50% dodecane; assay type: cell-based, Pseudomonas putida; details: for anisole produced, maximum / phenol consumed: 50 mM glucose, 1 mM phenol, 1 mM methionine, 50% dodecane; for phenol consumed: 24 hours
Description: Cell growth was determined by measuring the optical density at 600 nm (OD600) using an OD600 DiluPhotometer spectrophotometer (IMPLEN) or a Synergy plate reader (BioTek Instruments). Analysis of glucose in supernatants was performed using high-performance liquid chromatography (HPLC) (Thermo Fisher Scientific) equipped with an Aminex HPX-87H column. The mobile phase was 5 mM of H2SO4 at a flow rate of 0.6 mL/min, the column temperatures were held at 60° C. and the compounds were detected using a Shodex RI-101 detector (Shodex). […] The mobile phase consisted of Milli-Q water (A), 100 mM formic acid (B) and acetonitrile (C) with a flow rate of 1 mL/min at 30° C. Chromatographic separation of analytes was attained using the following gradient program: t=0-5 min: A-55%, B-10% and C-35% from t=5-10 min ramp to A-10%, B-10% and C-80% and held until 15 min. Then from t=15-16 min, the gradient was returned to A-55%, B-10% and C-35% and maintained isocratic for a total run time of 18 min. For quantification, calibration curves were prepared using pure standards (purity) purchased from Sigma-Aldrich.
Next, an aim was set to examine the anisole production rate of POMT1 compared to CVOMT1. […] An initial sample was taken and hereafter 50% dodecane was added. Cells were then incubated overnight at 30° C. and 250 rpm. Samples were taken at time zero only from the medium and then after 24 hours from both phases and analyzed at the HPLC.

phenol [6] = experiment: Growth-coupled methyltransferase selection in CM-Aux; assay type: cell-based, Pseudomonas putida
From the text: This design relies on the conversion of methionine into cysteine through the intermediate homocysteine with the aid of a SAM-dependent methyltransferase. Exogenously added methionine is converted into SAM, which would subsequently be converted into S-adenosyl-l-homocysteine (SAH) by CVOMT1 (FIG. 8C). Then, SAH is converted into homocysteine and subsequently into cysteine by reverse trans-sulfuration restoring growth in the process.
Next, an aim was set to install the reverse trans-sulfuration module which will convert homocysteine to the amino acid cysteine. This is a two-step process, catalyzed by the enzymes cystathionine-β-synthase and cystathionine-γ-lyase. The C-module was created by cloning the cystathionine-β-synthase (Cys) from S. cerevisiae and the cystathionine-γ-lyase (PA) from Pseudomonas aeruginosa on a pSEVAb62 backbone. The CM-Aux strain was equipped with the C-module and growth of the strain in minimal media was assessed. In all cases, growth could only occur upon the expression of the C-module. This module converts homocysteine to […], and if active, produces cysteine, restoring growth (FIG. 8A). […]
Next, an aim was set to examine the anisole production rate of POMT1 compared to CVOMT1. […] Samples were taken at time zero only from the medium and then after 24 hours from both phases and analyzed at the HPLC.

Oc1ccccc1 [phenol]
concentration up to which growth rates did not deviate (P. putida KT2440; growth of P. putida KT2440): up to 2 mM | concentration with detrimental effect on growth rate and final cell density (P. putida KT2440; growth of P. putida KT2440): ≥ 3000 µM | phenol concentration the strain was able to withstand (P. putida KT2440; growth of P. putida KT2440): up to 5 mM

COc1ccccc1 [anisole]
effect on growth (P. putida KT2440): did not show any detrimental effects on growth | anisole disappeared from media [1]: 89% | capture of anisole by organic solvents [2]: successfully captured | anisole in water phase ([3]; 0% dodecane): almost undetectable | anisole captured in organic phase, of initial concentration ([3]; 5% dodecane): 19.42% | anisole captured in organic phase, of initial concentration ([3]; 15% dodecane): 39.57% | anisole extracted ([3]; 30% dodecane): approximately 75% | anisole extracted ([3]; 50% dodecane): ~95%

B1: CVOMT1: chavicol O-methyltransferase (EC 2.1.1.146) from Ocimum basilicum, SEQ ID NO:1 (protein, listed as Ocimum basilicum)
chain: MALQNMDISLSTEQLLQAQAHVWNHMYAFANSMSLKCAIQLGIPDILHKHDHPMTLSQLLKAIPINKEKSQSFQRLMRALVNSNFFIEENSNNQEVCYWLTPASRLLLKGAPLTVAPLVQVVLDPTFTNPWHYMSEWFKHENHATQFEAANGCTFWEKLANKPSMGRFFDEAMSCDSRLVAHVLTKDYKHVIDGIRTLVDVGGGNGTMAKAIVEAVPTMKCTVLDLPHVVAGLESTDKLSYIGGDMFQSIPSADAILLKFIIHDWDDEEGLKILKRCKDAVGIGGKVIIIDVVVGVNHDVDEVLEDQLHFDMAMMSYFNAKERTMNEWEKLISAAGFTSYKLTPAFGVRSLIEAYP
anisole yield of the converted phenol (phenol [4]; 1 mM methionine added): 15.5 % mol/mol | anisole detection (phenol [4]; no methionine): no anisole was detected | phenol consumed (phenol [4]; no methionine, 24 hours): 0.12 mM | anisole produced, maximum (phenol [5]): 0.06 mM | phenol consumed (phenol [5]): 0.23 mM | doubling time (phenol [6]; CM-Aux with C- and A-module, phenol and methionine added (1 mM)): 1.8 h

B2: POMT1: evolved phenol O-methyltransferase, SEQ ID NO:1 with D264N alteration (SEQ ID NO:3) (protein)
chain: B1 chain with D264N
increase in anisole concentration compared to wild-type enzyme (phenol [5]): 2.33 fold | anisole produced, maximum (phenol [5]): 0.14 mM | phenol consumed (phenol [5]): 0.38 mM | phenol consumption more than CVOMT1 (phenol [5]; within 24 hours): 65% | phenol concentration at which maximum growth rate is reached (phenol [6]; CM-Aux, 1 mM methionine, different phenol concentrations): 0.2 mM
